Several values for one entry are separate records, joined by “and”; a condition that tells them apart may be missing. Equal entries are not always repeated. Where two headings read alike, the source gives them in different places. Where no end group is shown, it is not given here.
Columns and labels:
[1] = target: T1, ACE (from rabbit lungs) (Oryctolagus cuniculus, UniProt P12822); parameters: method as in 3 sources, ref 29 = [29]; doi:10.1111/j.1365-2621.2001.tb04614.x; 29. Nielsen P.M. Petersen D. Dambmann C. Improved method for determining food protein degree of hydrolysis J. Food Sci. 2001 66 642 646 10.1111/j.1365-2621.2001.tb04614.x ||| ref 43 = [43]; PMID 38470110; doi:10.1021/acs.jafc.4c00829; 43. Martineau-Côté D. Achouri A. Karboune S. L’Hocine L. Antioxidant and Angiotensin-Converting Enzyme Inhibitory Activity of Faba Bean-Derived Peptides After In Vitro Gastrointestinal Digestion: Insi ||| ref 10 = [10]; PMID 36493485; doi:10.1016/j.foodchem.2022.135082; 10. Fadimu G.J. Gan C.Y. Olalere Q.A. Farahnaky A. Gill H. Truong T. Novel antihypertensive peptides from lupin protein hydrolysate: An in-silico identification and molecular docking studies Food Chem; details: read-out: ACE inhibition IC50 (literature), cited from earlier work
T1 construct: ACE (0.1 U, from rabbit lungs, purity > 99.7%, CAS: 9015-82-1) was obtained from Sigma-Aldrich; purchased Sigma-Aldrich (St. Louis, MO, USA); host or cells: rabbit lung tissue
T1 sequence (P12822 34-1310): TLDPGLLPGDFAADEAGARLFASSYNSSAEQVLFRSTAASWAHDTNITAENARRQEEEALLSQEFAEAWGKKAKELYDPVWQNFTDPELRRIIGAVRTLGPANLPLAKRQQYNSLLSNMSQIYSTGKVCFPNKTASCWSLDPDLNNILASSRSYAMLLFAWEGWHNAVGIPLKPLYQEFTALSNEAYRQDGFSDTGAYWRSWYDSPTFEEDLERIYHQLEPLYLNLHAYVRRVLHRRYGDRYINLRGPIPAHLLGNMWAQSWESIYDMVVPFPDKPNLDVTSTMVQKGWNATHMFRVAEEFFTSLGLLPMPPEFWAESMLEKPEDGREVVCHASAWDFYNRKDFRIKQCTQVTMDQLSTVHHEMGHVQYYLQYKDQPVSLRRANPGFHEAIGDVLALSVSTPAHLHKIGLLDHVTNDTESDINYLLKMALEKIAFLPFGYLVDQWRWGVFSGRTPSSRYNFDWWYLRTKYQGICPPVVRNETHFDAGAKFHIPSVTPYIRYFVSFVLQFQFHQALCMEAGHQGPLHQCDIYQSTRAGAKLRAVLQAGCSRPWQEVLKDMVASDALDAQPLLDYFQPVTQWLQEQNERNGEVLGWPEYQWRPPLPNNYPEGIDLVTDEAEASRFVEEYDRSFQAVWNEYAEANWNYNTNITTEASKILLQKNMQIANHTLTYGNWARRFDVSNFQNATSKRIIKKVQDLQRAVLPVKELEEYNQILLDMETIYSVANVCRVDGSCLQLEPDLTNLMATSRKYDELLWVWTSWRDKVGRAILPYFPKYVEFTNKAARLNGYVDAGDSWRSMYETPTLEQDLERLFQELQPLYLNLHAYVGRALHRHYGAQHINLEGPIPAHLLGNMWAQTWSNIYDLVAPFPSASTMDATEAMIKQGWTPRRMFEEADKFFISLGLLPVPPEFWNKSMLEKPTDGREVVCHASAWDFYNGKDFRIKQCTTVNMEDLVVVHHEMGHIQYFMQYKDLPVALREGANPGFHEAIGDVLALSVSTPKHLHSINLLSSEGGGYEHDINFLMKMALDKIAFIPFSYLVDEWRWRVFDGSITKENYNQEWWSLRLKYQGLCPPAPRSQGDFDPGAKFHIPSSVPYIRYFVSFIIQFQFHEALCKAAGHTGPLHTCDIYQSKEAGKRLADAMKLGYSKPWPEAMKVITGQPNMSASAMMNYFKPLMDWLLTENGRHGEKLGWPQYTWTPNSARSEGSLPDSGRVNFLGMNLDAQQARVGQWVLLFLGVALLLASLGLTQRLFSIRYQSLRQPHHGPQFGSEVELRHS

[2] = Reducing power (potassium ferricyanide method); assay type: physicochemical; details: at 100 μg/mL; absorbance at 700 nm
From the text: The potassium ferricyanide method was employed to determine the reducing power of the SAGH peptides at the same conditions reported by Wang et al., where the absorbance at 700 nm represented the reducing power.

[3] = Hydroxyl radical scavenging activity (β-deoxyribose oxidation method); assay type: physicochemical; details: at 100 μg/mL
Experimental: (§1) As described by Wang et al. and Vásquez et al., the hydroxyl (·OH) and superoxide ( O2−· ) radicals’ scavenging activity was measured using the β-deoxyribose oxidation and pyrogallol auto-oxidation methods, respectively. The comparison was conducted when the samples were replaced by glutathione (0.1 mg/mL).

[4] = Superoxide radical scavenging activity (pyrogallol auto-oxidation method); assay type: physicochemical; details: at 100 μg/mL
Experimental: as §1

[5] = ABTS+ quenching ability; assay type: physicochemical; details: at 100 μg/mL; absorbance at 734 nm; mean ± standard error
Experimental: The ABTS^+ quenching ability was determined following the same procedures described by Vásquez et al.. The same system without the sample was the control, and glutathione (0.1 mg/mL) was the comparison. The percentage of reduction in absorbance at 734 nm was defined as the ABTS^+ scavenging ability of samples.

[6] = cited from earlier work
From the text: The ACE inhibition and antioxidant activities of […] were stable during gastrointestinal digestion (Figure 3A and Table 2), which is mainly ascribed to the Pro, Val, and Met residues. […] Therefore, the Pro and Val residues of […] were mainly responsible for its gastrointestinal stability. Peptides rich in Pro and br ...

[7] = Gastrointestinal stability of SAGH peptide (simulated gastric and intestinal digestion); assay type: in vitro ADME; details: peptide 5 mg/mL; simulated gastric fluid (pepsin 0.40 mg/mL) 37 °C, 140 rpm, 90 min, then pH 7.0 intestinal fluid (pancreatin 0.35 mg/mL, bile salt 3 g/100 mL) 37 °C 2 h; read-out activity
Experimental: (§2) As described by Wu et al., the simulative gastric digestive fluid consisted of sodium chloride (0.18 mol/L), ultrapure water (180 mL), and 0.40 mg/mL of pepsin. The simulation intestinal digestive juice was composed of NaHCO3, ([…]), bile salt (3 g/100 mL), pancreatin (0.35 mg/mL), and 180 mL of ultrapure water. The antihypertensive and antioxidant SAGH peptides (5 mg/mL, 60 mL) were first hydrolyzed using 150 mL of simulative gastric fluid at 37 °C and 140 rpm for 90 min. The mixture was adjusted to pH 7.0, and 180 mL of the simulative intestinal hydrolysis fluid was added and stirred at 37 °C for 2 h. After boiling for 6 min, the mixture was cooled with running water to room temperature. The ACE inhibition capacity and antioxidant ability of the treated SAGH peptides were detected and compared to those of the […] SAGH peptides.

[8] = target: T1, ACE (from rabbit lungs); experiment: ACE inhibitory ability (hippuric acid method); assay type: biochemical; details: N = 3
From the text: The hippuric acid method was used to measure the samples’ inhibitory ability towards ACE, following the same procedures as Zheng et al.. The absorbance at 228 nm was the hippuric acid content and represented ACE activity; therefore, the inhibitory ability of samples towards ACE was defined as the percentage of reduction in the absorption at 228 nm between the control and sample groups. Moreover, the ACE inhibitory kinetic of SAGH peptides was investigated by employing a Lineweaver–Burk plot with N-hippuryl-L-histidyl-L-leucine (HHL, 0.13–1.32 mmol/L) as the substrate.
as §2

[9] = assay not specified, cited from earlier work
From the text: Alternatively, the guanidine of Arg, imidazolyl in His, the free hydroxyl group of Ser, the cyclic amino group of Pro, and the phenolic hydroxyl group of Tyr can quickly quench free radicals, showing excellent antioxidant ability. Moreover, the sulfhydryl group in Cys or Met can inhibit free radicals’ chain reaction by chelating metal ions, which are catalysts for oxidation reactions. Therefore, the residues, including Tyr, Pro, Val, and Met, were responsible for the antioxidant activity of […]. Furthermore, the repeated amino acid sequences “GGG” can enhance the antioxidant ...

[10] = Gastrointestinal stability of peptide–ferrous chelate (ferrous solubility in simulated digestion); assay type: in vitro ADME
Experimental: Next, the intestinal digestive fluid was added, and digestion was continued at pH 6.8 for 2 h in the EDZF-C002 thermostatic vibrator ([…], 175 rpm).

[11] = Ferrous ion binding capacity (o-phenanthroline method); assay type: physicochemical; details: decrease in ferrous concentration per sample concentration, mean ± standard error, at least three tests
Experimental: The ferrous ion binding capacity was determined using the o-phenanthroline method following the same procedures described by Xu et al.. By plugging the absorbance value into the equation of A = 0.3719C + 0.0002 [36], the ferrous ion concentration (C) can be calculated. The ferrous ion binding capacity (mg/g) was defined as the decrease in ferrous concentration of the reaction solution per sample concentration.

GCHHY
IC50 ([1]; peptide from millet bran glutelin-2): 147 µM

N[C@@H](CCC(=O)N[C@@H](CS)C(=O)NCC(=O)O)C(=O)O [Glutathione, glutathione, reference compound]
Reducing Power Before Gastrointestinal Digestion [2]: 0.675 ± 0.019 a | ·OH Scavenging Activity (%) Before Gastrointestinal Digestion [3]: 95.56 ± 1.38 a,b % | Superoxide Radical Scavenging Ability (%) Before Gastrointestinal Digestion [4]: 90.52 ± 4.97 a % | ABTS+ Scavenging Activity (%) Before Gastrointestinal Digestion [5]: 79.25 ± 1.67 b %

PIIAKMY [literature peptide from millet glutelin-2]
gastrointestinal stability (literature) ([6]; peptide from millet glutelin-2): good gastrointestinal stability

PMYGGGMV
stability of ACE inhibition and antioxidant activities during gastrointestinal digestion [7]: stable | IC50 ([8]; hippuric acid method, HHL substrate, absorbance at 228 nm, read-out: ACE inhibitory activity (IC50)): 121 µM | IC50 ([8]; peptide 5 mg/mL, simulated gastric fluid (pepsin 0.40 mg/mL) 37 °C 90 min, then intestinal fluid (pancreatin 0.35 mg/mL, bile salt) pH 7.0, 37 °C 2 h, read-out: ACE inhibitory activity (IC50) after simulated gastrointestinal digestion): 130 µM

VSRRFIYYL [literature antioxidant peptide from broad bean]
antioxidant activity (literature) ([9]; peptides from broad bean): excellent antioxidant activity

LPSYVN [literature antioxidant peptide from apricot]
antioxidant activity (literature) ([9]; peptides from apricot): excellent antioxidant activity

YLSF [literature antioxidant peptide from apricot]
antioxidant activity (literature) ([9]; peptides from apricot): excellent antioxidant activity

SPAIPLP [literature antioxidant peptide from broad bean]
antioxidant activity (literature) ([9]; peptides from broad bean): excellent antioxidant activity

VIPTEPPHA [literature peptide from Faba beans]
IC50 ([1]; peptide from Faba beans): 260 µM | gastrointestinal stability (literature) ([6]; peptide from Faba beans): good gastrointestinal stability

[Cl][Fe][Cl] [ferrous chloride, reference compound]
ferrous solubility during gastric digestion ([10]; 0–90 min, simulated gastric fluid pH 1.9, 37 °C, 175 rpm, soluble ferrous by o-phenanthroline every 30 min, N = 3): relatively stable | ferrous solubility during intestinal digestion ([10]; 91–240 min, intestinal digestive fluid pH 6.8, soluble ferrous by o-phenanthroline, p < 0.05): apparently decreased

SGGEEAAAGP [oligopeptide identified in SAGH-D]
Ferrous chelating capacity [11]: 18.22 mg/g and 16.14 ± 0.43 g mg/g

— paper PMC11901700, “A Sweet Almond Globulin Multifunctional Peptide: Identification, In Silico Screening, Restraint Mechanisms to Keap1 and ACE, and Antihypertensive and Ferrous Transport Efficiency” (Nutrients, 2025)
